What is called IC50 is the concentration at which inhibition is half-maximal.

For series [1] the following is noted: cited from earlier work; for ΦISC: N-methyl porphyrin analogues; for τT (lifetime of 3PS*): N-methylated counterparts.
The conditions of series [2]: N-methylated analogue; cited from earlier work.
The test system of series [3] is A375. Kind of series: Photocytotoxicity, MTT assay. Type of series: cell-based, human. The note with it: for IC50: Homo sapiens, A-375, light or radiation study. As for the experimental part:
(§1) For (photo)cytotoxicity assays, stock solutions of porphyrins were prepared in DMSO and dissolved in DMEM to the final concentrations. The porphyrin incubation time was 6h. Irradiation of the cells was with red light (λ = 643 nm) for 30 min (light dose, 3.6 J/cm^2). Nonirradiated cells were used to test the dark toxicity. All measurements were performed in three individual experiments, and the results are shown as the proliferation (%) of the cells and were calculated as IC50 values.
(§2) The cytotoxicity of (oxidopyridyl)porphyrins was assessed by an MTT assay on the HDF, MeWo and A375 cell lines after 6 h of incubation with porphyrins, without irradiation, or after 30 min of irradiation with red light (λ = 643 nm), and under conditions of normoxia or hypoxia. To induce hypoxia, 100 µM of CoCl2 was added at least two hours before the porphyrins. […] Oxygen is also one of the substrates for the activity of prolyl hydroxylases; therefore, in both cases, the result is the blockage of hydroxylation of HIF-1α and, consequently, its increase and stabilisation, which, in the case of CoCl2-induced hypoxia, can be maintained for several hours.
A general note: Tetrazolium assays rely on reduction of a dye to a coloured formazan, in cell work by metabolically active cells.

In series [4] the test system is MeWo. Put plainly: Photocytotoxicity, MTT assay. Type of series: cell-based, human. The conditions noted are these: for IC50: Homo sapiens, MeWo, light or radiation study. The procedure:
as §1, §2

In series [5] the test system is HDF. Put plainly: Photocytotoxicity, MTT assay. Type of series: cell-based, human. The conditions noted are these: Homo sapiens, HDF, light or radiation study. The procedure: as §1, §2
Series [6] relates to HDF, MeWo and A375 cell lines. Put plainly: (Photo)cytotoxicity MTT assay, statements made for all cell lines. Format: cell-based, human. The procedure: as §1, §2
Series [7] can be described thus: Fluorescence decay by time-correlated single-photon counting (TC-SPC). Format: physicochemical. The conditions noted are these: MeOH, N2, λex 405 nm. The procedure: Time-correlated single-photon counting (TC-SPC) was used to obtain information about fluorescence decays. All measurements were performed on an FS5 Edinburgh Instruments device with a pulsed laser at 405 nm wavelength, which was used for the excitation process (pulse duration 60 ps). Fluorescence signals were monitored at 660 nm over 1023 channels, with a time increment of ≈49 ps/channel. Porphyrins were dissolved in MeOH (HPLC grade), with the absorbance adjusted to 0.1 a.u. at the excitation wavelength, and the solution was degassed with N2 for 15 min before the measurements were taken. All the decays were collected until they reached 3000 counts in the peak channel. A scattering solution, a silica gel suspension in H2O, was used to obtain the instrument response function (IRF). The histograms were analysed using a nonlinear least-squares deconvolution method via the software implemented with the instrument.

Series [8] is described as follows: Fluorescence spectra and fluorescence quantum yield in MeOH. Format: physicochemical. As for the experimental part: (§3) The absorption spectra of (oxidopyridyl)porphyrins were recorded in HPLC grade MeOH on a Cary UV 60 (Agilent Technologies, Santa Clara, CA, USA), in a wavelength range of 300–700 nm. The fluorescence spectra in HPLC grade MeOH were recorded on a Cary Eclipse (Agilent Technologies) in a wavelength range of 500–800 nm after excitation at the Soret band wavelength (λ ~ 420 nm). The slits of the spectrometer were set to a bandpass of 5 nm for the excitation and 5 nm for the emission. To calculate the fluorescence quantum yields, the measurements were conducted on an FS5 Edinburgh Instruments spectrometer. Prior to taking the measurements, the solutions were purged with high-purity N2 for at least 15 min. The absorbance of the solutions was set to A < 0.1 at 405 nm and 550 nm, which settings were used for the excitation process. Emission was recorded from 550 to 800 nm, with slits set to the bandpass corresponding to 2 nm for the excitation, and 3 nm for the emission. Fluorescence quantum yield (ΦFL) was calculated in comparison to the tetraphenylporphyrin (TPP; ΦFL = 0.11 [23]) as a standard, according to Equation (S1) and following an equation previously described elsewhere.

The nature of series [9]: Laser flash photolysis (LFP), triplet excited state properties. Format: physicochemical. The note with it: MeOH. The procedure:
Laser flash photolysis (LFP) was performed using an LP980 transient absorption spectrometer (Edinburgh Instruments) equipped with a continuous beam (or pulse mode) Xenon lamp passing through the sample. A nanosecond Nd:YAG laser (Quantel, Q-smart 450, 5 ns pulse duration, 10 Hz, excitation wavelength 355 nm) was then used to excite the sample perpendicular to the lamp beam. The laser beam energy was adjusted to below 5 mJ. The ground state absorbance of the porphyrins in MeOH was adjusted to 0.20–0.25 at 355 nm (the laser excitation wavelength) and the solutions were purged with high-purity N2 for at least 15 min prior to taking the measurements. The samples were prepared for kq determination in an air atmosphere that was N2-purged for 15 min and O2-purged for 15 min before the measurements were taken. The ground state absorption spectra of the samples were also recorded after purging the sample with N2 or O2, and after transient absorption (TAS) measurements were taken to track the differences in every step of the measurement process to ensure that no photoproducts were formed. All measurements were performed at 25 °C in 1 cm quartz cuvettes. Laser flash photolysis was used to measure the kinetics of triplet state depopulation (τT) and triplet-triplet absorption spectra, and to calculate the intersystem crossing quantum yield (ΦISC) and quenching rate constants of triplet excited states by molecular oxygen (kq). To calculate ΦISC, the first step was the calculation of the molar absorption coefficient of the triplet state using the singlet depletion method, completing the first step according to Equation (S2). The ΦISC values were estimated by using a comparative method with TPP (ΦISC = 0.87 in toluene) as the standard. The ΦISC was calculated according to Equation (S3). Triplet excited state lifetimes were determined by fitting the triplet decays to the equation for the mixed first- and second-order decay, as previously described, and the quenching rate constant of a triplet excited state by molecular oxygen was calculated using the Stern–Volmer equation (Equation (S4)).

Series [10] is described as follows: UV-Vis absorption spectra in MeOH. Format: physicochemical. The procedure:
as §3

Setting [11] is: red light 643 nm 30 min, CoCl2-induced hypoxia.
The mark [12] stands for this setting: red light 643 nm 30 min, normoxia.

Several values for one entry are separate records, joined by “and”; a condition that tells them apart may be missing. Equal entries are not always repeated. Where two headings read alike, the source gives them in different places.

Consider `CCCCCCCCCCCCCCCCCC(=O)Nc1ccc(-c2c3nc(c(-c4ccc[n+](C)c4)c4ccc([nH]4)c(-c4ccc[n+](C)c4)c4nc(c(-c5ccc[n+](C)c5)c5ccc2[nH]5)C=C4)C=C3)cc1.[Cl-].[Cl-].[Cl-]` [TMPyP3-C17H35, 5-(4-Octadecanamidophenyl)-10,15,20-Tris(N-Methylpyridinium-3-Yl)Porphyrin Trichloride], for which the ΦISC in [1] is listed as 0.38. The “τT (lifetime of 3PS*)” value in series [1] is 0.74 ms. Also, the “ΦFL (fluorescence quantum yield)” value in [2] was 0.105. In addition, the IC50 stood at 0.23 ± 0.07 µM in [3] (read-out: IC50 A375 CoCl2); 0.15 ± 0.08 µM in series [3] (read-out: IC50 A375 No CoCl2); 0.47 ± 0.02 µM in series [4] (read-out: IC50 MeWo CoCl2); 0.33 ± 0.04 µM in series [4] (read-out: IC50 MeWo No CoCl2); 0.46 ± 0.14 µM in series [5] (read-out: IC50 HDF CoCl2); 0.33 ± 0.03 µM in series [5] (read-out: IC50 HDF No CoCl2). The IC50 in [6] (Homo sapiens, light or radiation study, read-out: IC50 in all the tested cells) is no more than 1 µM. Moreover, the “SI (IC50 (HDF) / IC50 (melanoma cells)) A375 100 µM CoCl2” value in [3] (setting [11]) came out at 2.0. Moreover, in series [3] (setting [12]), the “SI (IC50 (HDF) / IC50 (melanoma cells)) A375 No CoCl2” value is 2.2. Moreover, in [4] (setting [11]), the “SI (IC50 (HDF) / IC50 (melanoma cells)) MeWo 100 µM CoCl2” value stood at 1.0. In series [4] (setting [12]), the “SI (IC50 (HDF) / IC50 (melanoma cells)) MeWo No CoCl2” value is given as 1.0.
For the molecule `CC(=O)Nc1ccc(-c2c3nc(c(-c4ccc[n+](C)c4)c4ccc([nH]4)c(-c4ccc[n+](C)c4)c4nc(c(-c5ccc[n+](C)c5)c5ccc2[nH]5)C=C4)C=C3)cc1.[Cl-].[Cl-].[Cl-]` [TMPyP3-CH3, 5-(4-Acetamidophenyl)-10,15,20-Tris(N-Methylpyridinium-3-Yl)Porphyrin Trichloride], the ΦISC in series [1] is reported as 0.34. Besides, in series [1], the “τT (lifetime of 3PS*)” value is 0.77 ms. The “ΦFL (fluorescence quantum yield)” value in series [2] is listed as 0.072. For the same molecule, the IC50 in series [3] (read-out: IC50 A375 CoCl2), in series [3] (read-out: IC50 A375 No CoCl2), in series [4] (read-out: IC50 MeWo CoCl2), in [4] (read-out: IC50 MeWo No CoCl2), in [5] (read-out: IC50 HDF CoCl2) and in series [5] (read-out: IC50 HDF No CoCl2) was greater than 100 µM throughout.
As for `CC(=O)Nc1ccc(-c2c3nc(c(-c4ccc[n+]([O-])c4)c4ccc([nH]4)c(-c4ccc[n+]([O-])c4)c4nc(c(-c5ccc[n+]([O-])c5)c5ccc2[nH]5)C=C4)C=C3)cc1` [TOPyP3-CH3, 5-(4-Acetamidophenyl)-10,15,20-tris(1-oxido-3-pyridyl)porphyrin], in series [3] (6 h incubation, red light 643 nm 30 min, 3.6 J/cm^2, 100 μM CoCl2 at least 2 h before porphyrin, read-out: IC50 A375 CoCl2), the IC50 was greater than 100 µM. Further, the IC50 in series [3] (6 h incubation, red light 643 nm 30 min, 3.6 J/cm^2, normoxia, read-out: IC50 A375 No CoCl2) was greater than 100 µM. In addition, the IC50 in series [4] (6 h incubation, red light 643 nm 30 min, 3.6 J/cm^2, 100 μM CoCl2 at least 2 h before porphyrin, read-out: IC50 MeWo CoCl2) was greater than 100 µM. The IC50 in [4] (6 h incubation, red light 643 nm 30 min, 3.6 J/cm^2, normoxia, read-out: IC50 MeWo No CoCl2) was greater than 100 µM. In addition, in series [5] (6 h incubation, red light 643 nm 30 min, 3.6 J/cm^2, 100 μM CoCl2 at least 2 h before porphyrin, read-out: IC50 HDF CoCl2), the IC50 is greater than 100 µM. Also, in [5] (6 h incubation, red light 643 nm 30 min, 3.6 J/cm^2, normoxia, read-out: IC50 HDF No CoCl2), the IC50 was greater than 100 µM. For the same molecule, in [6] (1 µM, irradiation 643 nm, normoxia or CoCl2-induced hypoxia), the “phototoxicity / reduction of proliferation at 1 µM” value was “did not appear to reduce the proliferation”. In addition, in series [7], the “contribution of τ1 (% of the decay)” value came to 2%; the “contribution of τ2 (% of the decay)” value worked out at 98%; the “τFL, longer decay time τ2” value was 8.62 ± 0.02 ns and 8.62 ns; the “τFL, short decay time τ1” value was 0.82 ± 0.08 ns and 0.82 ns. In addition, the “ΦFL (fluorescence quantum yield)” value in series [8] (N2-purged, TPP as reference) amounted to 0.050 ± 0.002. In series [8] (excitation at Soret band), the “λFL Q(0,0)” value was determined as 648 nm and the “λFL Q(0,1)” value is listed as 713 nm. For the same molecule, the “τT (lifetime of 3PS*)” value in [9] came to 1.1 ms. In addition, in series [9] (N2-purged, 25 °C), the “τT (lifetime of the triplet excited state)” value is 1100 ± 200 μs. For the same molecule, the “kq (O2) (quenching rate constant of the triplet excited state by O2)” value in series [9] (Stern–Volmer) is 1.3e+09 M⁻¹ s⁻¹. Moreover, in series [9] (comparative method with TPP, estimated), the “ΦISC (quantum yield of intersystem crossing)” value is given as 0.66. Also, the “εT-T (molar absorption coefficient of the triplet state)” value in [9] (singlet depletion method) is 47 000 M^−1cm^−1. In addition, in series [10], the “ε Qx (0-0)” value is 1900 M⁻¹ cm⁻¹, the “ε Qx (1-0)” value came out at 5800 M⁻¹ cm⁻¹, the “ε Qy (0-0)” value was determined as 5200 M⁻¹ cm⁻¹ and the “ε Qy (1-0)” value was determined as 18200 M⁻¹ cm⁻¹. Also, in series [10], the “ε Soret (B)” value turned out to be 346900 M⁻¹ cm⁻¹, the “λabs Qx (0-0)” value came to 645 nm, the “λabs Qx (1-0)” value stood at 588 nm and the “λabs Qy (0-0)” value is 545 nm. In series [10], the “λabs Qy (1-0)” value worked out at 510 nm and the “λabs Soret (B)” value came out at 416 nm.

Values taken from article PMC12382614, “(Oxidopyridyl)Porphyrins of Different Lipophilicity: Photophysical Properties, ROS Production and Phototoxicity on Melanoma Cells Under CoCl2-Induced Hypoxia” (Antioxidants, 2025).
